Bounds are passed on as bounds.

Data set [1] in a line: Dissociation constant, pKa of the compound. In kind it is physicochemical.
Data set [2] has as its target T1, Chitinase (Onchocerca volvulus, UniProt Q25615).
T1 sequence (Q25615 whole entry): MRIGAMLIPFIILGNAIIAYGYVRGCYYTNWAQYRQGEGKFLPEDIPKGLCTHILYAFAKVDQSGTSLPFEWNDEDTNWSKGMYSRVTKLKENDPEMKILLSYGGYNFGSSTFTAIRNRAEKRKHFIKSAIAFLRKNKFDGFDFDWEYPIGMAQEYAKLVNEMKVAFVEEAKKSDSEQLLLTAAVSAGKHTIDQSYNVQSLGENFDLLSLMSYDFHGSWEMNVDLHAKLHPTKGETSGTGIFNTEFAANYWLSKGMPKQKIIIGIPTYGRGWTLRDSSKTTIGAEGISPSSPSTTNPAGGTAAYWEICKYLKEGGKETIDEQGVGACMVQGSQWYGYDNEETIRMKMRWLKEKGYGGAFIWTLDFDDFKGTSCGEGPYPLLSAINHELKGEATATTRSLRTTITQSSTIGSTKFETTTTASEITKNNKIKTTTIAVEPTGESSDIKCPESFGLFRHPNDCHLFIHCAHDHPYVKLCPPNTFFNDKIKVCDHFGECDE
The data set can be described thus: Inhibition of Onchocerca volvulus chitinase by fluorescence based assay.

The nature of data set [3]: Displacement of [3H]KA from Kainate receptor in rat cortical synaptosomes. In kind it is subcellular. Background: Displacement assays read how much labelled ligand stays bound in the presence of the test substance.
Data set [4] is described as follows: Displacement of [3H]AMPA from AMPA receptor in rat cortical synaptosomes. In kind it is subcellular.
In data set [5] the target is Glutamate NMDA receptor. The data set can be described thus: Displacement of [3H]CGP39653 from NMDA receptor in rat cortical synaptosomes. It counts as subcellular.

For orientation: pKa means the pH at which an ionisable group is half protonated. A low value points to a stronger acid or weaker base. In data set [1], `CCOC(=O)c1nnn(C)c1O` showed a pKa of 6.21.

For orientation: IC50 means the concentration at which inhibition is half-maximal. A higher IC50 goes with a need for much substance. In turn, `Cn1nnc(O)c1C(=O)Nc1ccc(Oc2ccccc2)cc1` gave a half-maximal inhibitory concentration (IC50) in data set [2] of 4.69 µM.

As for `CCOC(=O)c1c(O)nnn1C`, the pKa in data set [1] was 5.54.

Regarding `CCOC(=O)c1nn(C)nc1O`, the pKa in data set [1] stood at 5.14.

Turning to `CCOC(=O)c1nonc1O`, the pKa in data set [1] is 3.24.

In the case of `O=C(Nc1ccc(Oc2ccccc2)cc1)c1c(O)nnn1CC1CCCCC1`, the IC50 in data set [2] was 5.11 µM.

For the compound `CCOC(=O)c1cn(C)nc1O`, the pKa in data set [1] amounted to 6.71.

For the compound `O=C(Nc1ccc(Oc2ccccc2)cc1)c1nn(Cc2ccccc2)nc1OCc1ccccc1`, the IC50 in data set [2] came out at 0.41 µM. In other words, the sub-micromolar range.

Consider `O=C(Nc1ccc(Oc2ccccc2)cc1)c1c(OCc2ccccc2)nnn1Cc1ccccc1`, for which the IC50 in data set [2] was determined as 0.41 µM. That is a sub-micromolar value.

Turning to `CCOC(=O)c1nnn(Cc2ccccc2)c1O`, in data set [1], the pKa is 6.22.

In turn, `O=C(Nc1ccc(Oc2ccccc2)cc1)c1c(OCc2ccccc2)nnn1CC1CCCCC1` returned an IC50 in data set [2] of 0.52 µM.

In data set [1], `CCOC(=O)c1c(O)nnn1Cc1ccccc1` returned a pKa of 5.38.

In data set [1], `CCOC(=O)c1nn(Cc2ccccc2)nc1O` registered a pKa of 5.14.

Take `CCOC(=O)c1nsnc1O`: the pKa in data set [1] came out at 4.21.

Usually Ki stands for the dissociation constant of the complex between target and ligand, obtained from inhibition or displacement. High values mean weaker binding, low ones tighter binding. For the compound `N[C@@H](Cc1nsnc1O)C(=O)O`, the IC50 in data set [3] was greater than 100 µM; in data set [4], 0.065 µM. The compound further showed a Ki in data set [5] greater than 100 µM.

`Cn1nc(O)c(CC(N)C(=O)O)n1` (racemic): the IC50 in data set [3] was greater than 100 µM. This compound had a Ki in data set [5] greater than 100 µM.

Turning to `Cn1nnc(O)c1CC(N)C(=O)O` (racemic), the IC50 in data set [3] is greater than 100 µM; in data set [4], 1.4 µM. Further, the pKa in data set [1] was determined as 6.42. This compound also came in with a Ki in data set [5] greater than 100 µM.

With `N[C@@H](CCC(=O)O)C(=O)O` [GLUTAMIC ACID], the pKa in data set [1] is 4.2.

The values above are taken from ChEMBL document CHEMBL3739260, “Substituted 4-hydroxy-1,2,3-triazoles: synthesis, characterization and first drug design applications through bioisosteric modulation and scaffold hopping approaches” (Medchemcomm, 2015).
